Laboratory results as given in PubChem BioAssay AID330 (DTP/NCI, 2004).
Several values for one entry are separate records, joined by “and”; a condition that tells them apart may be missing. Identical values can stand only once. Toxic doses and inconclusive results are not listed. The calls were made as follows: active = survival T/C of 150% or more; inactive = T/C below 125% in these data.

System: P388 leukemia ip, CD2F1 mice, survival T/C
Experiment: NCI In Vivo Anticancer Drug Screen. Data for tumor model P388 Leukemia (intraperitoneal) in CD2F1 (CDF1) mice
Conditions: endpoint: median survival time, higher = longer survival
Method in brief: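 Mice carrying the transplanted tumor received test compound or vehicle. Survival was recorded in each group, and the value is the treated-group measurement divided by that of the vehicle-treated control group.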

[1] = dose: 25.0 mg/kg/injection, schedule: Q01DX009 (ip), vehicle: Klucel (hydroxypropylcellulose) (HPC)
[2] = dose: 50.0 mg/kg/injection, schedule: Q01DX009 (ip), vehicle: Klucel (hydroxypropylcellulose) (HPC)
[3] = dose: 100.0 mg/kg/injection, schedule: Q01DX009 (ip), vehicle: Klucel (hydroxypropylcellulose) (HPC)
[4] = dose: 200.0 mg/kg/injection, schedule: Q01DX009 (ip), vehicle: Klucel (hydroxypropylcellulose) (HPC)
[5] = dose: 25.0 mg/kg/injection, schedule: Q01DX009 (ip), vehicle: saline with Tween-80
[6] = dose: 50.0 mg/kg/injection, schedule: Q01DX009 (ip), vehicle: saline with Tween-80
[7] = dose: 100.0 mg/kg/injection, schedule: Q01DX009 (ip), vehicle: saline with Tween-80
[8] = dose: 50.0 mg/kg/injection, schedule: Q01DX005 (ip), vehicle: saline with Tween-80
[9] = dose: 100.0 mg/kg/injection, schedule: Q01DX005 (ip), vehicle: saline with Tween-80
[10] = dose: 200.0 mg/kg/injection, schedule: Q01DX005 (ip), vehicle: saline with Tween-80
[11] = dose: 12.5 mg/kg/injection, schedule: Q01DX009 (ip), vehicle: saline with Tween-80

Measured: T/C

COc1ccc(-c2c(C#N)cnc(C)c2C)c(O)c1OC
inactive: [1] 96 % of control | [2] 92 % of control | [3] 96 % of control | [4] 90 % of control

Cn1c2ccccc2c2oc(-c3nn[nH]n3)cc(=O)c21
inactive: dose: 60.0 mg/kg/injection, schedule: Q01DX005 (ip), vehicle: Klucel (hydroxypropylcellulose) (HPC) 97 % of control | dose: 120.0 mg/kg/injection, schedule: Q01DX005 (ip), vehicle: Klucel (hydroxypropylcellulose) (HPC) 105 % of control | dose: 240.0 mg/kg/injection, schedule: Q01DX005 (ip), vehicle: Klucel (hydroxypropylcellulose) (HPC) 100 % of control

COC1/C=C/OC2(C)Oc3c(C)c(O)c4c(c3C2=O)C(N)=C(Nc2ccccc2)C(=NC(=O)C(C)=CC=CC(C)C(O)C(C)C(O)C(C)C(OC(C)=O)C1C)C4=O (stereo not given)
inactive: [1] 97 % of control | [2] 94 % of control | [3] 98 % of control | [4] 86 % of control

COc1ccc(-c2coc3cc(OC4OC(COC5OCC(O)C(O)C5O)C(O)C(O)C4O)cc(O)c3c2=O)cc1 (stereo not given)
inactive: [5] 103 % of control | [6] 98 % of control | [7] 102 % of control

O=C1NN2CCCN=C2c2cccnc21
inactive: dose: 100.0 mg/kg/injection, schedule: Q04DX002 (ip), vehicle: saline with Tween-80 101 % of control | dose: 200.0 mg/kg/injection, schedule: Q04DX002 (ip), vehicle: saline with Tween-80 98 % of control | dose: 400.0 mg/kg/injection, schedule: Q04DX002 (ip), vehicle: saline with Tween-80 101 % of control

NC(=O)c1ccnn1C1OC(CO)C(O)C1O (stereo not given)
inactive: dose: 32.0 mg/kg/injection, schedule: Q01DX002 (ip), vehicle: saline 107 % of control and 116 % of control | dose: 64.0 mg/kg/injection, schedule: Q01DX002 (ip), vehicle: saline 104 % of control and 112 % of control | dose: 128.0 mg/kg/injection, schedule: Q01DX002 (ip), vehicle: saline 107 % of control

C=CC1(O)Cc2cc(C(C)C)c(OC)c(OC)c21 (stereo not given)
inactive: [8] 106 % of control | [9] 119 % of control | [10] 109 % of control

CC(C)NCC(O)COc1cccc2[nH]c3ccccc3c12 (stereo not given)
inactive: [5] 99 % of control | [6] 96 % of control

CC1(C)CCCC(C)(C(=O)O)O1 (stereo not given)
inactive: dose: 60.0 mg/kg/injection, schedule: Q01DX005 (ip), vehicle: saline with Tween-80 104 % of control | dose: 120.0 mg/kg/injection, schedule: Q01DX005 (ip), vehicle: saline with Tween-80 101 % of control | dose: 240.0 mg/kg/injection, schedule: Q01DX005 (ip), vehicle: saline with Tween-80 104 % of control

CCOC(=O)/C=C(\Cl)C(=O)OCC
inactive: dose: 1.56 mg/kg/injection, schedule: Q01DX009 (ip), vehicle: saline with Tween-80 95 % of control | dose: 1.56 mg/kg/injection, schedule: Q01DX009 (ip), vehicle: saline 101 % of control | dose: 3.13 mg/kg/injection, schedule: Q01DX009 (ip), vehicle: saline with Tween-80 104 % of control and 110 % of control | dose: 3.13 mg/kg/injection, schedule: Q01DX009 (ip), vehicle: saline 103 % of control | dose: 6.25 mg/kg/injection, schedule: Q01DX009 (ip), vehicle: saline with Tween-80 111 % of control and 123 % of control | dose: 6.25 mg/kg/injection, schedule: Q01DX009 (ip), vehicle: saline 112 % of control | [11] 111 % of control | dose: 12.5 mg/kg/injection, schedule: Q01DX009 (ip), vehicle: saline 118 % of control

Cc1c(Cl)c(O)cc2oc3cc(O)cc(O)c3c(=O)c12
inactive: dose: 10.0 mg/kg/injection, schedule: Q04DX003 (ip), vehicle: Klucel (hydroxypropylcellulose) (HPC) 105 % of control | dose: 20.0 mg/kg/injection, schedule: Q04DX003 (ip), vehicle: Klucel (hydroxypropylcellulose) (HPC) 102 % of control | dose: 40.0 mg/kg/injection, schedule: Q04DX003 (ip), vehicle: Klucel (hydroxypropylcellulose) (HPC) 105 % of control

COc1ccc(N=C(C)c2c(O)n(-c3ccccc3)[nH]c2=O)cc1
inactive: dose: 50.0 mg/kg/injection, schedule: Q01DX005 (ip), vehicle: Klucel (hydroxypropylcellulose) (HPC) 101 % of control | dose: 100.0 mg/kg/injection, schedule: Q01DX005 (ip), vehicle: Klucel (hydroxypropylcellulose) (HPC) 104 % of control | dose: 200.0 mg/kg/injection, schedule: Q01DX005 (ip), vehicle: Klucel (hydroxypropylcellulose) (HPC) 99 % of control

O=C(/C=C/c1cccnc1)/C=C/c1cccnc1
inactive: dose: 6.25 mg/kg/injection, schedule: Q01DX009 (ip), vehicle: Klucel (hydroxypropylcellulose) (HPC) 122 % of control | dose: 12.5 mg/kg/injection, schedule: Q01DX009 (ip), vehicle: Klucel (hydroxypropylcellulose) (HPC) 124 % of control | [1] 124 % of control | [2] 120 % of control

CCCCCOC(=O)c1ccc(O)cc1
inactive: [11] 108 % of control | [5] 100 % of control | [6] 99 % of control and 100 % of control | [7] 94 % of control

O=C(c1cccnc1)c1cc(-c2ccccn2)c(=O)n2ccccc12
inactive: [5] 99 % of control and 104 % of control | [6] 107 % of control and 109 % of control and 88 % of control | [7] 104 % of control and 107 % of control and 89 % of control | dose: 200.0 mg/kg/injection, schedule: Q01DX009 (ip), vehicle: saline with Tween-80 90 % of control

COc1ccc2c(Cc3ccccc3)c3[n+](cc2c1OC)CCc1cc2c(cc1-3)OCO2
inactive: dose: 1.56 mg/kg/injection, schedule: Q01DX005 (ip), vehicle: Klucel (hydroxypropylcellulose) (HPC) 113 % of control | dose: 3.12 mg/kg/injection, schedule: Q01DX005 (ip), vehicle: Klucel (hydroxypropylcellulose) (HPC) 115 % of control | dose: 6.25 mg/kg/injection, schedule: Q01DX005 (ip), vehicle: Klucel (hydroxypropylcellulose) (HPC) 113 % of control and 115 % of control | dose: 12.5 mg/kg/injection, schedule: Q01DX005 (ip), vehicle: Klucel (hydroxypropylcellulose) (HPC) 118 % of control

CCC(C)(C(=O)Nc1ccc2nc(C)cc(N)c2c1)C(=O)Nc1ccc2nc(C)cc(N)c2c1
inactive: [8] 87 % of control | [9] 96 % of control | [10] 100 % of control

Cc1nc2[nH]c(=O)[nH]c(=O)c2[nH]1
inactive: dose: 100.0 mg/kg/injection, schedule: Q04DX003 (ip), vehicle: saline with Tween-80 100 % of control | dose: 200.0 mg/kg/injection, schedule: Q04DX003 (ip), vehicle: saline with Tween-80 113 % of control

CCCCCCCCCC1(CC(=O)OCC)SCCN1C(N)=O (stereo not given)
inactive: [2] 113 % of control | [3] 107 % of control | [4] 115 % of control

CCC(CCC(C)C1CCC2C3CC=C4CC(O)CCC4(C)C3CCC12C)C(C)C (stereo not given) (tested in a mixture with another compound)
inactive: [2] 105 % of control | [3] 90 % of control

CCOCNC=O
inactive: dose: 125.0 mg/kg/injection, schedule: Q01DX005 (ip), vehicle: water 107 % of control | dose: 250.0 mg/kg/injection, schedule: Q01DX005 (ip), vehicle: water 100 % of control | dose: 500.0 mg/kg/injection, schedule: Q01DX005 (ip), vehicle: water 107 % of control | dose: 1000.0 mg/kg/injection, schedule: Q01DX005 (ip), vehicle: water 112 % of control

CC(C)(Br)C(C)(C)OO
inactive: dose: 18.75 mg/kg/injection, schedule: Q04DX003 (ip), vehicle: Klucel (hydroxypropylcellulose) (HPC) 104 % of control | dose: 37.5 mg/kg/injection, schedule: Q04DX003 (ip), vehicle: Klucel (hydroxypropylcellulose) (HPC) 112 % of control | dose: 75.0 mg/kg/injection, schedule: Q04DX003 (ip), vehicle: Klucel (hydroxypropylcellulose) (HPC) 104 % of control
